Measured values: EP0542549A1, “Use of cosmetic composition” (UNILEVER PLC, priority 1991, dated 1993)

System: pig skin stratum corneum
Assay: In vitro measurement of stratum corneum extensibility (linear extensometer)
Conditions: 44% relative humidity; for Extensibility ratio: ratio of force/extension slopes before and after treatment, 2% extension at 20mm/min, application 4µl/cm² (25ng), mean ± standard deviation, ratio >1 = increased extensibility
Excerpt: The benefits of the composition following topical application to skin can be quantified by in vitro measurements employing pig skin and an extensometer, in accordance with the following procedure.
Pig skin was selected for this evaluation and this was first cleaned with an aqueous ethanol-chlorohexidine solution (15 : 75 : 10:, Hibitane; ICI Pharmaceuticals). Hairs were removed by clipping followed by depilation with commercially-available thioglycolate cream (Immac : Whitehall Laboratories) and 0.4mm thick slices of skin were removed using a Davies electric skin dermatome. Stratum corneum was isolated by incubating strips of skin, dermis side down, into a solution of trypsin (0.25g% Flow Laboratories) and phosphate-buffered saline (PBS) comprising 137mM NaCl; 2.68mM KCl; 8.1mM NaHPO₄; 1.47mM KH₂PO₄ at pH 7.4 for 2-4h at 37°C. The dermis was separated from the epidermis using forceps and the latter was incubated in fresh trypsin-PBS solution overnight at 4°C. The enzyme solution was changed several times on the following day before the stratum corneum was washed with sonication (Lucas Dawe Ultrasonics; bath sonicleaner) and three changes of PBS to remove trypsin and residual cells. The corneum was then washed with distilled water containing 0.02% sodium azide (to inhibit bacterial growth) before floating onto fluorocarbon filter (Spectra-mesh; 149µ mesh). After drying at ambient temperature and humidity the sheets of corneum were cut into rectangular strips measuring 1 x 2.5cm. The pieces of corneum were mounted at each end with plastic tape (Flow tape; Flow Laboratories) and a 6mm hole was punched into the centre of each tab. During this whole procedure the orientation of the stratum corneum was maintained to ensure samples were treated on their external surfaces only in subsequent experiments. Samples were stored in petri-dishes at ambient humidity and temperature until required. […]
The extensibility of pig skin stratum corneum was measured following treatment with ω-(O-linoleoyl)ceramide having the structure (12), as herein defined. […]

SMILES | Extensibility ratio | extensibility ratio compared with hydrolysed ceramide structure (12) or linoleate (students t test, significance at the 5% level, 4µl/cm² (25ng))
CCCCC/C=C\C/C=C\CCCCCCCC(=O)O [Linoleate, reference compound] | 1.29 ± 0.16 | 
CCCCC/C=C\C/C=C\CCCCCCCC(=O)OCCCCCCCCCCCCCCCCCCCCCC(=O)NC(CO)C(O)C=CCCCCCCCCCCCCC (stereo not drawn) [Ceramide structure (12), ω-(O-linoleoyl)ceramide] | 2.11 ± 0.45 | significantly greater
